Test results: EP4707280A1, “1,4-CINEOLE DERIVATIVE AND INTERMEDIATE THEREOF, HERBICIDE CONTAINING SAID DERIVATIVE AS ACTIVE INGREDIENT, METHOD FOR USING HERBICIDE, AND METHOD FOR PREPARING AGROCHEMICAL COMPOSITION” (HOKKO CHEMICAL INDUSTRY CO., LTD., priority 2023, dated 2024)

Key:
Format in all cases: in vivo
[1] = test system: Scirpus juncoides; experiment: Test Example 2: herbicidal effect test by application during growth period of paddy rice; details: Schoenoplectiella juncoides; 120 g per 10 ares; applied seven days after sowing, flooded pots; 14 days after application; read-out: weed inhibition rate
How it was run: (§1)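 Steps: puddle fertilized paddy soil; sow 30 seeds of each weed at 0–1 cm; flood to roughly 3 cm and keep in a glasshouse; at day 7 drop in diluted emulsifiable concentrate (120 g a.i. per 10 ares); score inhibition (%) 14 days later, two replicates.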

[2] = test system: Echinochloa crus-galli var. formosensis; experiment: as above; details: 120 g per 10 ares, applied seven days after sowing, flooded pots, 14 days after application; for inhibition at 1200 g/ha: Echinochloa crus-galli, read-out: weed inhibition rate
How it was run: as §1

[3] = test system: Scirpus juncoides; experiment: Test Example 1: herbicidal effect test by soil application in paddy rice; details: Schoenoplectiella juncoides, soil, 336 h; 120 g active ingredient per 10 ares; applied immediately after sowing, flooded pots; 14 days after application; read-out: weed inhibition rate
How it was run: (§2)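 Paddy soil in Wagner pots (1/10,000 acre), fertilized and puddled; 30 seeds per species sown at 0–1 cm, flooded to ~3 cm, greenhouse. Water-diluted emulsifiable concentrate dropped onto flooded pots right after sowing at 120 g active ingredient per 10 ares.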

[4] = test system: Echinochloa crus-galli var. formosensis; experiment: as above; details: 120 g active ingredient per 10 ares, applied immediately after sowing, flooded pots, 14 days after application; for pest or weed control at 1200 g/ha: Echinochloa crus-galli, soil, 336 h, read-out: weed inhibition rate
How it was run: as §2

[5] = test system: Echinochloa crus-galli; experiment: Test Example 4: herbicidal effect test by stem and leaf treatment in upland field; details: Echinochloa crus-galli; 120 g per 10 ares; sprayed seven days after sowing, upland soil; 14 days after application; read-out: weed inhibition rate
[6] = test system: Echinochloa crus-galli var. formosensis; experiment: Test Example 5: herbicidal effect test by soil application in paddy rice (low dose); details: 7.5 g per 10 ares, applied immediately after sowing, flooded pots, 14 days after application; for inhibition at 75 g/ha: Echinochloa crus-galli, soil, 336 h, read-out: weed inhibition rate
Protocol: (§3) The present test was conducted in duplicate for each chemical concentration group, and the weed inhibition rate (%) was determined 14 days after chemical application using the following formula (Math. 1). [formula]
Wagner pots with an area of […] were filled with paddy soil, followed by addition of water and incorporation of chemical fertilizer (N:P:K = 16:16:16), after which puddling was performed. After that, seeds of Echinochloa crus-galli var. formosensis, broad-leaved weeds (Monochoria vaginalis), and Scirpus juncoides were sown at a depth of 0 cm to 1 cm, 30 seeds each. Immediately after sowing, the pots were flooded and a water depth of approximately 3 cm was maintained. Subsequent management was conducted in a glass greenhouse. Immediately thereafter, an emulsifiable concentrate prepared according to Formulation Example 5 using the compound shown below was diluted with water, and a specified amount of the diluted solution was applied by dropper. The amount of the active ingredient to be applied was equivalent to 7.5 g per 10 ares. […]

[7] = test system: Echinochloa crus-galli var. formosensis; experiment: Test Example 6: herbicidal effect test by application during growth period of paddy rice (low dose); details: 7.5 g per 10 ares, applied seven days after sowing, flooded pots, 14 days after application; for inhibition at 75 g/ha: Echinochloa crus-galli, read-out: weed inhibition rate
Protocol: as §3
Wagner pots with an area of […] were filled with paddy soil, followed by addition of water and incorporation of chemical fertilizer (N:P:K = 16:16:16), after which puddling was performed. After that, seeds of Echinochloa crus-galli var. formosensis, broad-leaved weeds (Monochoria vaginalis), and Scirpus juncoides were sown at a depth of 0 cm to 1 cm, 30 seeds each. Immediately after sowing, the pots were flooded and a water depth of approximately 3 cm was maintained. Subsequent management was conducted in a glass greenhouse. Seven days after sowing, an emulsifiable concentrate prepared according to Formulation Example 5 using the compound shown below was diluted with water, and a specified amount of the diluted solution was applied by dropper. The amount of the active ingredient to be applied was equivalent to 7.5 g per 10 ares. The test was conducted in duplicate for each chemical concentration group, and the herbicidal effect was evaluated 14 days after chemical application using the same criteria as in Test Example 1.

[8] = test system: Echinochloa crus-galli; experiment: Test Example 3: herbicidal effect test by soil application in upland field; details: Echinochloa crus-galli, 120 g per 10 ares, sprayed one day after sowing, 14 days after application, read-out: weed inhibition rate
How it was run: (§4)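 Pre-emergence test: seeds mixed into top 1 cm of alluvial loam upland soil in pots; emulsifiable concentrate diluted in water sprayed on soil one day after sowing at 100 L/10 a, 120 g a.i./10 a. Weed inhibition rate (%) scored at 14 days, in duplicate.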

[9] = test system: Digitaria ciliaris; experiment: as above; details: Digitaria ciliaris, 120 g per 10 ares, sprayed one day after sowing, 14 days after application, read-out: weed inhibition rate
How it was run: as §4

[10] = test system: Digitaria ciliaris; experiment: Test Example 4: herbicidal effect test by stem and leaf treatment in upland field; details: Digitaria ciliaris; 120 g per 10 ares; sprayed seven days after sowing, upland soil; 14 days after application; read-out: weed inhibition rate

CC(C)[C@]12CC(OCc3ccccc3OC(F)(F)F)[C@](C)(C[C@@H]1Cl)O2 (mixture of isomers) [1-627, (1R,2S,4S,SR)-2-chloro-1-isopropyl-4-methyl-5-[[2-(trifluoromethoxy)phenyl]methoxy]-7-oxabicyclo[2.2.1]heptane]
≥ 80%: inhibition at 1200 g/ha [1] | inhibition at 1200 g/ha [2] | pest or weed control at 1200 g/ha [3] | pest or weed control at 1200 g/ha [4]

Cc1ccccc1CO[C@@H]1C[C@]2(C(C)C)O[C@@]1(C)CC2c1ccccc1 (stereo partly drawn) [1-313, (1S,2R,4R)-4-isopropyl-1-methyl-2-((2-methylbenzyl)oxy)-5-phenyl-7-oxabicyclo[2.2.1]heptane]
≥ 80%: inhibition at 1200 g/ha [2] | inhibition at 1200 g/ha [5] | inhibition at 75 g/ha [6] | pest or weed control at 1200 g/ha [4] | inhibition at 75 g/ha [7] | inhibition at 1200 g/ha [8]

CC(C)[C@]12C[C@@H](OCc3ccccc3C(F)(F)F)[C@](C)(C[C@@H]1Cl)O2 [1-640, (1R,2S,4S,5R)-2-chloro-1-isopropyl-4-methyl-5-[[2-(trifluoromethyl)phenyl]methoxy]-7-oxabicyclo[2.2.1]heptane]
≥ 80%: inhibition at 1200 g/ha [1] | inhibition at 1200 g/ha [2] | pest or weed control at 1200 g/ha [3] | pest or weed control at 1200 g/ha [4]

Cc1noc(C)c1CO[C@@H]1C[C@]2(C(C)C)O[C@@]1(C)C[C@@H]2Cl [1-663, 4-[[(1S,2R,4R,5S)-5-chloro-4-isopropyl-1-methyl-7-oxabicyclo[2.2.1]heptan-2-yl]oxymethyl]-3,5-dimethyl-isoxazole]
≥ 80%: inhibition at 1200 g/ha [1] | inhibition at 1200 g/ha [2] | pest or weed control at 1200 g/ha [3] | pest or weed control at 1200 g/ha [4]

CCCCCCO[C@@H]1C[C@]2(C(C)C)O[C@@]1(C)C[C@@H]2Br [1-669, (1S,2R,4R,5S)-5-bromo-2-hexoxy-1-methyl-4-isopropyl-7-oxabicyclo[2.2.1]heptane]
≥ 80%: inhibition at 1200 g/ha [1] | inhibition at 1200 g/ha [2] | inhibition at 1200 g/ha [5] | pest or weed control at 1200 g/ha [4] | inhibition at 1200 g/ha [9] | inhibition at 1200 g/ha [8] | inhibition at 1200 g/ha [10]

CC(C)[C@]12C[C@@H](OCC3CCCCC3)[C@](C)(C[C@@H]1Br)O2 [1-676, (1S,2R,4R,5S)-5-bromo-2-(cyclohexylmethoxy)-1-methyl-4-isopropyl-7-oxabicyclo[2.2.1]heptane]
≥ 80%: inhibition at 1200 g/ha [2] | inhibition at 1200 g/ha [5] | inhibition at 75 g/ha [6] | pest or weed control at 1200 g/ha [3] | pest or weed control at 1200 g/ha [4] | inhibition at 75 g/ha [7] | inhibition at 1200 g/ha [9] | inhibition at 1200 g/ha [8] | inhibition at 1200 g/ha [10]

Cc1noc(C)c1CO[C@@H]1C[C@]2(C(C)C)O[C@@]1(C)C[C@@H]2Br [1-723, 4-[[(1S,2R,4R,5S)-5-bromo-1-methyl-4-isopropyl-7-oxabicyclo[2.2.1]heptan-2-yl]oxymethyl]-3,5-dimethyl-1,2-oxazole]
≥ 80%: inhibition at 1200 g/ha [2] | inhibition at 75 g/ha [6] | pest or weed control at 1200 g/ha [4] | inhibition at 75 g/ha [7]

CC(C)[C@]12C[C@@H](OCc3ccccc3OC(F)(F)F)[C@](C)(C[C@@H]1I)O2 [1-750, (1R,2S,4S,5R)-2-iodo-1-isopropyl-4-methyl-5-[[2-(trifluoromethoxy)phenyl]methoxy]-7-oxabicyclo[2.2.1]heptane]
≥ 80%: inhibition at 1200 g/ha [1] | inhibition at 1200 g/ha [2] | pest or weed control at 1200 g/ha [3] | pest or weed control at 1200 g/ha [4]

CC(C)[C@]12C[C@@H](OCc3ccccc3C(F)(F)F)[C@](C)(C[C@@H]1I)O2 [1-765, (1R,2S,4S,5R)-2-iodo-1-isopropyl-4-methyl-5-[[2-(trifluoromethyl)phenyl]methoxy]-7-oxabicyclo[2.2.1]heptane]
≥ 80%: inhibition at 1200 g/ha [1] | inhibition at 1200 g/ha [2] | pest or weed control at 1200 g/ha [3] | pest or weed control at 1200 g/ha [4]

CC(C)[C@]12C[C@@H](OCc3cccnc3)[C@](C)(C[C@@H]1I)O2 [1-786, 3-[[(1S,2R,4R,5S)-5-iodo-4-isopropyl-1-methyl-7-oxabicyclo[2.2.1]heptan-2-yl]oxymethyl]pyridine]
≥ 80%: inhibition at 1200 g/ha [1] | pest or weed control at 1200 g/ha [3]

Cc1noc(C)c1CO[C@@H]1C[C@]2(C(C)C)O[C@@]1(C)C[C@@H]2I [1-790, 4-[[(1S,2R,4R,5S)-5-iodo-4-isopropyl-1-methyl-7-oxabicyclo [2.2.1]heptane-2-yl]oxymethyl]-3,5-dimethyl-isoxazole]
≥ 80%: inhibition at 1200 g/ha [1] | inhibition at 1200 g/ha [2] | pest or weed control at 1200 g/ha [3] | pest or weed control at 1200 g/ha [4]

CC(C)[C@]12C[C@@H](OCc3ccccc3F)[C@](C)(CC1c1ccsc1)O2 (stereo partly drawn) [1-928, (1S,2R,4R)-2-((2-fluorobenzyl)oxy)-4-isopropyl-1-methyl-5-(thiophen-3-yl)-7-oxabicyclo[2.2.1]heptane]
≥ 80%: inhibition at 1200 g/ha [2] | inhibition at 1200 g/ha [5] | inhibition at 75 g/ha [6] | pest or weed control at 1200 g/ha [4] | inhibition at 75 g/ha [7] | inhibition at 1200 g/ha [10]

CC(=O)O[C@@H]1C[C@]2(C)O[C@@]1(C(C)C)C[C@H]2OCc1ccccc1F [1-932, [(1R,2R,4S,5R)-5-[(2-fluorophenyl)methoxy]-4-methyl-1-isopropyl-7-oxabicyclo[2.2.1]heptan-2-yl]acetate]
≥ 80%: weed inhibition rate [2] | weed inhibition rate [6] | weed inhibition rate [4] | weed inhibition rate [7]

COC(=O)c1ccccc1CO[C@H]1C[C@@]2(C(C)C)O[C@]1(C)C[C@H]2I [1-1115, methyl 2-[[(1R,2S,4S,5R)-5-iodo-1-methyl-4-isopropyl-7-oxabicyclo[2.2.1]heptan-2-yl]oxymethyl]benzoate]
≥ 80%: inhibition at 1200 g/ha [1] | pest or weed control at 1200 g/ha [3]

COC(=O)c1ccccc1COC1CC2(C(C)C)OC1(C)CC2Cl (stereo not drawn) [1-1310, methyl 2-[(5-chloro-4-isopropyl-1-methyl-7-oxabicyclo[2.2.1]heptan-2-yl)oxymethyl]benzoate]
≥ 80%: inhibition at 1200 g/ha [1] | pest or weed control at 1200 g/ha [3]

CC(C)C12CC(OCc3cccnc3)C(C)(CC1Cl)O2 (stereo not drawn) [1-1321, 3-[(5-chloro-4-isopropyl-1-methyl-7-oxabicyclo[2.2.1]heptan-2-yl)oxymethyl]pyridine]
≥ 80%: inhibition at 1200 g/ha [1] | pest or weed control at 1200 g/ha [3]

CC(C)C12CC(OCc3ccncc3)C(C)(CC1Cl)O2 (stereo not drawn) [1-1322, 4-[(5-chloro-4-isopropyl-1-methyl-7-oxabicyclo[2.2.1]heptan-2-yl)oxymethyl]pyridine]
≥ 80%: inhibition at 1200 g/ha [1] | pest or weed control at 1200 g/ha [3]

COC(=O)c1ccccc1COC1CC2(C(C)C)OC1(C)CC2I (stereo not drawn) [1-1442, methyl 2-[(5-iodo-4-isopropyl-1-methyl-7-oxabicyclo[2.2.1]heptan-2-yl)oxymethyl]benzoate]
≥ 80%: inhibition at 1200 g/ha [1] | pest or weed control at 1200 g/ha [3]
